In ChEMBL document CHEMBL3600303, “The N-Terminal T-T Motif of a Third-Generation HIV-1 Fusion Inhibitor Is Not Required for Binding Affinity and Antiviral Activity” (J Med Chem, 2015):

How the values were obtained:
[1] = test system: Human immunodeficiency virus 1; assay: Ratio of IC50 for ENF-resistant HIV1 NL4-3 harboring gp41 N-terminal heptad repeat D36G mutant to IC50 for wild type HIV1 NL4-3; type: functional
[2] = test system: Human immunodeficiency virus 1; assay: Ratio of IC50 for ENF-resistant HIV1 NL4-3 harboring gp41 N-terminal heptad repeat Q40H mutant to IC50 for ENF-resistant HIV1 NL4-3 harboring gp41 N-terminal heptad repeat D36G mutant; type: functional
[3] = test system: Human immunodeficiency virus 1; assay: Ratio of IC50 for ENF-resistant HIV1 NL4-3 harboring gp41 N-terminal heptad repeat I37T mutant to IC50 for wild type HIV1 NL4-3; type: functional
[4] = test system: Human immunodeficiency virus 1; assay: Ratio of IC50 for ENF-resistant HIV1 NL4-3 harboring gp41 N-terminal heptad repeat Q40H mutant to IC50 for wild type HIV1 NL4-3; type: functional
[5] = test system: Human immunodeficiency virus 1; assay: Antiviral activity against wild type HIV1 NL4-3 infected in human TZM-bl cells assessed as inhibition of viral entry into cells after 48 hrs by single-cycle infection assay; type: functional, organism-based; details: Human immunodeficiency virus 1, NL4-3, TZM-bl
[6] = test system: Human immunodeficiency virus 1; assay: Ratio of IC50 for ENF-resistant HIV1 NL4-3 harboring gp41 N-terminal heptad repeat V38M mutant to IC50 for wild type HIV1 NL4-3; type: functional
[7] = test system: Human immunodeficiency virus 1; assay: Antiviral activity against ENF-resistant HIV1 NL4-3 harboring gp41 N-terminal heptad repeat N43K mutant infected in human TZM-bl cells assessed as inhibition of viral entry into cells after 48 hrs by single-cycle infection assay; type: functional, organism-based
[8] = test system: Human immunodeficiency virus 1; assay: Antiviral activity against ENF-resistant HIV1 NL4-3 harboring gp41 N-terminal heptad repeat D36S/V38M double mutant infected in human TZM-bl cells assessed as inhibition of viral entry into cells after 48 hrs by single-cycle infection assay; type: functional, organism-based
[9] = test system: Human immunodeficiency virus 1; assay: Ratio of IC50 for ENF-resistant HIV1 NL4-3 harboring gp41 N-terminal heptad repeat V38A mutant to IC50 for wild type HIV1 NL4-3; type: functional
[10] = test system: Human immunodeficiency virus 1; assay: Antiviral activity against ENF-resistant HIV1 NL4-3 harboring gp41 N-terminal heptad repeat I37T/N43K double mutant infected in human TZM-bl cells assessed as inhibition of viral entry into cells after 48 hrs by single-cycle infection assay; type: functional, organism-based
[11] = test system: Human immunodeficiency virus 1; assay: Antiviral activity against ENF-resistant HIV1 NL4-3 harboring gp41 N-terminal heptad repeat D36G mutant infected in human TZM-bl cells assessed as inhibition of viral entry into cells after 48 hrs by single-cycle infection assay; type: functional, organism-based
[12] = test system: Human immunodeficiency virus 1; assay: Ratio of IC50 for wild type HIV1 NL4-3 to IC50 for ENF-resistant HIV1 NL4-3 harboring gp41 N-terminal heptad repeat D36G mutant; type: functional
[13] = test system: Human immunodeficiency virus 1; assay: Ratio of IC50 for ENF-resistant HIV1 NL4-3 harboring gp41 N-terminal heptad repeat V38A mutant to IC50 for ENF-resistant HIV1 NL4-3 harboring gp41 N-terminal heptad repeat D36G mutant; type: functional
[14] = test system: Human immunodeficiency virus 1; assay: Ratio of IC50 for ENF-resistant HIV1 NL4-3 harboring gp41 N-terminal heptad repeat I37T/N43K double mutant to IC50 for wild type HIV1 NL4-3; type: functional
[15] = test system: Human immunodeficiency virus 1; assay: Ratio of IC50 for ENF-resistant HIV1 NL4-3 harboring gp41 N-terminal heptad repeat N43K mutant to IC50 for wild type HIV1 NL4-3; type: functional
[16] = test system: Human immunodeficiency virus 1; assay: Ratio of IC50 for ENF-resistant HIV1 NL4-3 harboring gp41 N-terminal heptad repeat I37T/N43K double mutant to IC50 for ENF-resistant HIV1 NL4-3 harboring gp41 N-terminal heptad repeat D36G mutant; type: functional
[17] = test system: Human immunodeficiency virus 1; assay: Antiviral activity against ENF-resistant HIV1 NL4-3 harboring gp41 N-terminal heptad repeat V38A mutant infected in human TZM-bl cells assessed as inhibition of viral entry into cells after 48 hrs by single-cycle infection assay; type: functional, organism-based
[18] = test system: Human immunodeficiency virus 1; assay: Ratio of IC50 for ENF-resistant HIV1 NL4-3 harboring gp41 N-terminal heptad repeat V38M mutant to IC50 for ENF-resistant HIV1 NL4-3 harboring gp41 N-terminal heptad repeat D36G mutant; type: functional
[19] = test system: Human immunodeficiency virus 1; assay: Ratio of IC50 for ENF-resistant HIV1 NL4-3 harboring gp41 N-terminal heptad repeat V38A/N42T double mutant to IC50 for wild type HIV1 NL4-3; type: functional
[20] = test system: Human immunodeficiency virus 1; assay: Antiviral activity against ENF-resistant HIV1 NL4-3 harboring gp41 N-terminal heptad repeat V38M mutant infected in human TZM-bl cells assessed as inhibition of viral entry into cells after 48 hrs by single-cycle infection assay; type: functional, organism-based
[21] = test system: Human immunodeficiency virus 1; assay: Ratio of IC50 for ENF-resistant HIV1 NL4-3 harboring gp41 N-terminal heptad repeat D36S/V38M double mutant to IC50 for ENF-resistant HIV1 NL4-3 harboring gp41 N-terminal heptad repeat D36G mutant; type: functional
[22] = test system: Human immunodeficiency virus 1; assay: Antiviral activity against ENF-resistant HIV1 NL4-3 harboring gp41 N-terminal heptad repeat V38A/N42T double mutant infected in human TZM-bl cells assessed as inhibition of viral entry into cells after 48 hrs by single-cycle infection assay; type: functional, organism-based
[23] = test system: Human immunodeficiency virus 1; assay: Antiviral activity against ENF-resistant HIV1 NL4-3 harboring gp41 N-terminal heptad repeat I37T mutant infected in human TZM-bl cells assessed as inhibition of viral entry into cells after 48 hrs by single-cycle infection assay; type: functional, organism-based
[24] = test system: Human immunodeficiency virus 1; assay: Antiviral activity against ENF-resistant HIV1 NL4-3 harboring gp41 N-terminal heptad repeat Q40H mutant infected in human TZM-bl cells assessed as inhibition of viral entry into cells after 48 hrs by single-cycle infection assay; type: functional, organism-based
[25] = test system: Human immunodeficiency virus 1; assay: Ratio of IC50 for ENF-resistant HIV1 NL4-3 harboring gp41 N-terminal heptad repeat N43K mutant to IC50 for ENF-resistant HIV1 NL4-3 harboring gp41 N-terminal heptad repeat D36G mutant; type: functional
[26] = test system: Human immunodeficiency virus 1; assay: Ratio of IC50 for ENF-resistant HIV1 NL4-3 harboring gp41 N-terminal heptad repeat V38A/N42T double mutant to IC50 for ENF-resistant HIV1 NL4-3 harboring gp41 N-terminal heptad repeat D36G mutant; type: functional
[27] = test system: Human immunodeficiency virus 1; assay: Ratio of IC50 for ENF-resistant HIV1 NL4-3 harboring gp41 N-terminal heptad repeat D36S/V38M double mutant to IC50 for wild type HIV1 NL4-3; type: functional
[28] = test system: Human immunodeficiency virus 1; assay: Ratio of IC50 for ENF-resistant HIV1 NL4-3 harboring gp41 N-terminal heptad repeat I37T mutant to IC50 for ENF-resistant HIV1 NL4-3 harboring gp41 N-terminal heptad repeat D36G mutant; type: functional
[29] = biological target: Envelope glycoprotein gp160 (Human immunodeficiency virus type 1 group M subtype B (isolate HXB2)(HIV-1)) (UniProt P04578); assay: Binding affinity to HIV-1 HXB2 gp41 N-terminal heptad repeat assessed as thermostability of compound at 10 uM after 30 mins by CD spectroscopic analysis; details: Human immunodeficiency virus 1
[30] = test system: Human immunodeficiency virus 1; assay: Antiviral activity against wild type HIV1 NL4-3 infected in human TZM-bl cells assessed as inhibition of viral replication after 2 days by luciferase reporter gene assay; type: functional, organism-based; details: Human immunodeficiency virus 1, NL4-3, TZM-bl, 48 h
[31] = test system: Human immunodeficiency virus 1; assay: Antiviral activity against HIV1 NL4-3 pseudovirus infected in human TZM-bl cells assessed as inhibition of viral entry into cells after 48 hrs by single-cycle infection assay; type: functional, organism-based; details: Human immunodeficiency virus 1, NL4-3, TZM-bl

enfuvirtide
Ratio IC50 [1]: 0.1 | Ratio IC50 [2]: 159.8 | Ratio IC50 [3]: 6.9 | Ratio IC50 [4]: 16.1 | IC50 [5]: 90.2 nM | Ratio IC50 [6]: 3 | IC50 [7]: 467 nM | IC50 [8]: 240 nM | Ratio IC50 [9]: 7.9 | IC50 [10]: > 2250 nM | IC50 [11]: 9.1 nM | Ratio IC50 [12]: 9.9 | Ratio IC50 [13]: 77.9 | Ratio IC50 [14]: >25 | Ratio IC50 [15]: 5.2 | Ratio IC50 [16]: 247.3 | IC50 [17]: 709 nM | Ratio IC50 [18]: 29.4 | Ratio IC50 [19]: >25 | IC50 [20]: 268 nM | Ratio IC50 [21]: 26.4 | IC50 [22]: > 2250 nM | IC50 [23]: 618 nM | IC50 [24]: 1450 nM | Ratio IC50 [25]: 51.3 | Ratio IC50 [26]: 247.3 | Ratio IC50 [27]: 2.7 | Ratio IC50 [28]: 68

H-MTWEEWDKKIEEYTKKIEELIKKS-OH
Tm [29]: 78.2 °C | IC50 [30]: 0.9 nM | IC50 [31]: 1.29 nM
